{"source": "patent US20020173640A1", "about": "“ADAM polynucleotides, polypeptides, and antibodies” (Human Genome Sciences, Inc., priority 1999, published 2002)", "molecules": {"B1": {"name": "Flag-tagged hADAM-19 protein (residues 26-701 of SEQ ID NO: 9) (protein)", "chain": "REPGWTRGSEEGSPKLQHELIIPQWKTSESPVREKHPLKAELRVMAEGRELILDLEKNEQLFAPSYTETHYTSSGNPQTTTRKLEDHCFYHGTVRETELSSVTLSTCRGIRGLITVSSNLSYVIEPLPDSKGQHLIYRSEHLKPPPGNCGFEHSKPTTRDWALQFTQQTKKRPRRMKREDLNSMKYVELYLVADYLEFQKNRRDQDATKHKLIEIANYVDKFYRSLNIRIALVGLEVWTHGNMCEVSENPYSTLWSFLSWRRKLLAQKYHDNAQLITGMSFHGTTIGLAPLMAMCSVYQSGGVNMDHSENAIGVAATMAHEMGHNFGMTHDSADCCSASAADGGCIMAAATGHPFPKVFNGCNRRELDRYLQSGGGMCLSNMPDTRMLYGGRRCGNGYLEDGEECDCGEEEECNNPCCNASNCTLRPGAECAHGSCCHQCKLLAPGTLCREQARQCDLPEFCTGKSPHCPTNFYQMDGTPCEGGQAYCYNGMCLTYQEQCQQLWGPGARPAPDLCFEKVNVAGDTFGNCGKDMNGEHRKCNMRDAKCGKIQCQSSEARPLESNAVPIDTTIIMNGRQIQCRGTHVYRGPEEEGDMLDPGLVMTGTKCGYNHICFEGQCRNTSFFETEGCGKKCNGHGVCNNNQNCHCLPGWAPPFCNTPGHGGSIDSGPMPPESVG"}}, "key": {"[1]": {"tested_on": "HIV", "conditions": "cited from earlier work"}, "[2]": {"tested_on": "viruses containing the K103N mutation", "conditions": "cited from earlier work"}, "[3]": {"biological_target": "T1, Bovine plasma alpha-2-macroglobulin (UniProt Q7SIH1)", "T1 sequence": "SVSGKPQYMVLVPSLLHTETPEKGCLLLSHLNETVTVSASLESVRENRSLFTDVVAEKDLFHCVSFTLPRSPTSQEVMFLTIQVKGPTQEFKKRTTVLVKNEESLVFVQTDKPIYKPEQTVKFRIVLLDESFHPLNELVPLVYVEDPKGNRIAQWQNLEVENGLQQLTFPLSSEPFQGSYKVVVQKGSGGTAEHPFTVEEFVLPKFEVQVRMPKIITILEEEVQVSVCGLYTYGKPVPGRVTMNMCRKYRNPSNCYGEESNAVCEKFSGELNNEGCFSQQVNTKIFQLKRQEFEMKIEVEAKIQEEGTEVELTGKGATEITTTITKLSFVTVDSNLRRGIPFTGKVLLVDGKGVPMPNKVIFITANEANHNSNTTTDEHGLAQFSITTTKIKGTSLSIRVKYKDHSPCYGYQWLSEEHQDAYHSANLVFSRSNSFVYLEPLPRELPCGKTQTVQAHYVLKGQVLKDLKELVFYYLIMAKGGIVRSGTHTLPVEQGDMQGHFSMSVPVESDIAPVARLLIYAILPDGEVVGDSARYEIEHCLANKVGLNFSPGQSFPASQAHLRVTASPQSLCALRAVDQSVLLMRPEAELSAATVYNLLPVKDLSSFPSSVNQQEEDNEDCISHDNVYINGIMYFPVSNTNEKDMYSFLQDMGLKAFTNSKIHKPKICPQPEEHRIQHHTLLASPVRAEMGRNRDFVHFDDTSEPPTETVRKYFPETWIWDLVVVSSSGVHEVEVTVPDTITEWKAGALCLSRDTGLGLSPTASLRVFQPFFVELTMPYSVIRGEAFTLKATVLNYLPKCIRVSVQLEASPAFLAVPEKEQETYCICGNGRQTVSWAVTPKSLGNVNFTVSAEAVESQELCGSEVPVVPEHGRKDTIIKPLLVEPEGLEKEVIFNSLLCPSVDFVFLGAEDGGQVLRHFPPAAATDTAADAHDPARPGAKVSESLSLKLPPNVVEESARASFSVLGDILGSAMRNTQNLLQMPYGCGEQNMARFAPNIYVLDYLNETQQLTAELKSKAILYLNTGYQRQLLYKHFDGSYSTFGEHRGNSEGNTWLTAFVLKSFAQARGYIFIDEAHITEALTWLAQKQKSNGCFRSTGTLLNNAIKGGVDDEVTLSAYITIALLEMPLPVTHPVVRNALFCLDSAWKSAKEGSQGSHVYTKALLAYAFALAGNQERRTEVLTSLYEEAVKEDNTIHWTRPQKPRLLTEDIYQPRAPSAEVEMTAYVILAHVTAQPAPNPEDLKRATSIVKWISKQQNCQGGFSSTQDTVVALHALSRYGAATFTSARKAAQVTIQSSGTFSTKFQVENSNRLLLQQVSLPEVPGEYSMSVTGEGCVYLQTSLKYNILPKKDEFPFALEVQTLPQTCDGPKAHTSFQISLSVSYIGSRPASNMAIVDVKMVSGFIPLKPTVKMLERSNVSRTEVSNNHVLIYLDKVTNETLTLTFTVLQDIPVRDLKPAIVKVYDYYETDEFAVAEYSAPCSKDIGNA"}, "[4]": {"biological_target": "T2, hADAM-19 (Homo sapiens, UniProt Q9H013)", "T2 construct": "made in house", "T2 sequence (Q9H013 26-701 isoform Q9H013-2)": "B1 chain", "assay": "Inhibition of α2-M cleavage by hADAM-19 (SDS-PAGE, silver staining)", "format": "biochemical", "description": "20 mM EDTA, 20 rmiM EGTA, 10 mM HgCl2, 1 miM TIMP-1,-2 (TIMP: hADAM-19 molar ratio was 100:1) and three commercial (CALBIOCHEM) small molecule human MMP inhibitors were used to inhibit α2-M cleavage by hADAM-19. […] Briefly, different concentrations of those inhibitors were mixed with 7.5 μl of hADAM-19 (50 μg/ml) in 22.9 μl of 1× HEPES buffer (50 mM HEPES, pH 7.5, 0.2 M NaCl, 10 mM CaCl2, 25 μM ZnCl, and 0.05%Brij-35) and incubated at room temperature (24° C.) for 2-hr, then 7.1 μl of substrate α2-M (0.2 unit/ml) were added and incubated at 37° C. for 20-hr. The reactions were stopped by adding 4× sample bufer and boiled immediately for 5 minutes. After SDS-PAGE, the protein bands were visualized by silver staining."}, "[5]": {"biological_target": "MMP-1 (Homo sapiens, UniProt P03956)", "sequence (P03956 100-469)": "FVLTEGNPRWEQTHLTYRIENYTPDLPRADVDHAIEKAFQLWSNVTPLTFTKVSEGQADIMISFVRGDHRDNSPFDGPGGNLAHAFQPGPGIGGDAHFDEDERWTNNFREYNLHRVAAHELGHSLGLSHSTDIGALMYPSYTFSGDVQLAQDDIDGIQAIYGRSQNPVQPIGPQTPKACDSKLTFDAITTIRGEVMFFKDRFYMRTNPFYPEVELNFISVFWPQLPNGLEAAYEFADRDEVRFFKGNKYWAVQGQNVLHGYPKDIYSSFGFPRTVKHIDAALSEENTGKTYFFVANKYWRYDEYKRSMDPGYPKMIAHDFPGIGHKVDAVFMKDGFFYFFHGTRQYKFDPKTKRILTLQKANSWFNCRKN", "conditions": "commercial (CALBIOCHEM) inhibitor data; read-out: IC50 against MMP-1; cited from earlier work"}, "[6]": {"biological_target": "MMP-8 (Homo sapiens, UniProt P22894)", "sequence (P22894 101-467)": "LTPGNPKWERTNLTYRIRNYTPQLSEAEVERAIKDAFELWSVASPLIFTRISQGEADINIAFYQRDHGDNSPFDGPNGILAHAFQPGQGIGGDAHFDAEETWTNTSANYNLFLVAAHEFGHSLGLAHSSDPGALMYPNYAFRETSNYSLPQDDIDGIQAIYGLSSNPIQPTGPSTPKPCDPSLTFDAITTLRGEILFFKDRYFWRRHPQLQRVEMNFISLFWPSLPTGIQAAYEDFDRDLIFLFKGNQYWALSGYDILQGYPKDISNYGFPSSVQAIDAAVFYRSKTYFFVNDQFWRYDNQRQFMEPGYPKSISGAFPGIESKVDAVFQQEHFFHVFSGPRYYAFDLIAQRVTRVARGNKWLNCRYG", "conditions": "commercial (CALBIOCHEM) inhibitor data; read-out: IC50 against MMP-8; cited from earlier work"}, "[7]": {"biological_target": "MMP-9 (Homo sapiens, UniProt P14780)", "sequence (P14780 94-707)": "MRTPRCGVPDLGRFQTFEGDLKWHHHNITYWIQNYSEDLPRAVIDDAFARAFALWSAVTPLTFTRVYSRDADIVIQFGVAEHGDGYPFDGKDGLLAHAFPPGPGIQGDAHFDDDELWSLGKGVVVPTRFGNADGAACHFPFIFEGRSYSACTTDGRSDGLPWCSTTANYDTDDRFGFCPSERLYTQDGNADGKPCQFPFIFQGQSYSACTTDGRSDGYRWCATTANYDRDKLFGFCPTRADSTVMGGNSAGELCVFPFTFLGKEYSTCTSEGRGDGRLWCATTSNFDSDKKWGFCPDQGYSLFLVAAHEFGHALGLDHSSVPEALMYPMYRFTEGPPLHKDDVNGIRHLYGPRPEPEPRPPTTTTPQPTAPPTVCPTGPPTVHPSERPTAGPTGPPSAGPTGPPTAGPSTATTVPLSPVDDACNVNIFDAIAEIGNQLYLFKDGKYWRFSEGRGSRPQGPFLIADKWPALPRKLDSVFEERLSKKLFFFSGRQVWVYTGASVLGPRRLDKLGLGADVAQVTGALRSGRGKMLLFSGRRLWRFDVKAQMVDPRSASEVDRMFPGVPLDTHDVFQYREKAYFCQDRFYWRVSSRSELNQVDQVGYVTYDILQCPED", "conditions": "commercial (CALBIOCHEM) inhibitor data; read-out: IC50 against MMP-9; cited from earlier work"}, "[8]": {"biological_target": "MMP-3 (Homo sapiens, UniProt P08254)", "sequence (P08254 100-477)": "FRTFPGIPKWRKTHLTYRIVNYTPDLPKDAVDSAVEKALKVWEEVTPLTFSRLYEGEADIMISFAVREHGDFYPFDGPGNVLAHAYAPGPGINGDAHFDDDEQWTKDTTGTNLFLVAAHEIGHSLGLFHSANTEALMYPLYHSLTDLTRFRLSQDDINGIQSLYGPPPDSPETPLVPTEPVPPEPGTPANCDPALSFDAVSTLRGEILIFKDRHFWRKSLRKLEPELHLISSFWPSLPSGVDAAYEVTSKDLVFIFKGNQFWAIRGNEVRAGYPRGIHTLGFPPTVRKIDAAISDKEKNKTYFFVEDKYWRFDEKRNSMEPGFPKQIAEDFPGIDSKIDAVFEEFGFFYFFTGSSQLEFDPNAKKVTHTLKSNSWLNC", "conditions": "commercial (CALBIOCHEM) inhibitor data; read-out: IC50 against MMP-3; cited from earlier work"}, "[9]": {"biological_target": "T3, Bovine plasma alpha-2-macroglobulin, Q7SIH1", "T3 chain": "T1 sequence"}, "[10]": {"biological_target": "Mca fluorogenic peptide substrate M-1985"}, "[11]": {"biological_target": "Mca fluorogenic peptide substrate M-2105"}, "[12]": {"biological_target": "Mca fluorogenic peptide substrate M-2110"}, "[13]": {"biological_target": "Mca fluorogenic peptide substrate M-2225"}, "[14]": {"biological_target": "Mca fluorogenic peptide substrate M-2255"}, "[15]": {"biological_target": "bovine casein"}, "[16]": {"biological_target": "rat tail tendon type I gelatin"}, "[17]": {"conditions": "summary statement, concentration not given"}}, "note": "Read-outs that look alike come from different tables or passages of the source. Square brackets hold non-standard residues; d marks the D form. Peptide text beside a SMILES is read from it. * marks the point of attachment. 4Abz = Nc1ccc(C(=O)O)cc1; NHOH = ON*", "data": [{"molecule": "CC[C@H]1C(=O)Nc2ccc(F)cc2N1C(=O)OC(C)C", "note": "[GW-420867X]", "values": [{"measurement": "activity relative to HBY097", "setting": "[1]; greater activity than HBY097", "result": 25, "unit": "fold"}, {"measurement": "activity against K103N mutants", "setting": "[2]", "result": "active against K103N mutants"}]}, {"molecule": "Trypsin", "values": [{"measurement": "cleavage of α2-M (SDS-PAGE, silver staining)", "setting": "[3]", "result": "Trypsin was used as a positive proteinase control to cleave α2-M and it generated a 72 kDa major band and a 35 kDa minor band"}]}, {"molecule": "O=C(O)CN(CCN(CC(=O)O)CC(=O)O)CC(=O)O", "note": "[EDTA]", "values": [{"measurement": "blockage of hADAM-19 digestion of α2-M", "setting": "[4]", "result": "completely blocked"}, {"measurement": "blockage of hADAM-19 proteolytic activity against α2-M", "setting": "[4]", "result": "blocked completely"}]}, {"molecule": "COc1ccc(S(=O)(=O)N(CC(=O)NO)CC(C)C)cc1", "note": "[MMP-3 inhibitor II, N-Isobutyl-N-(4-methoxyphenylsulfonyl)-glycylhydroxamic acid]", "values": [{"measurement": "blockage of hADAM-19 digestion of α2-M", "setting": "[4]; 100 µM inhibitor", "result": "partially blocked"}, {"measurement": "blockage of hADAM-19 digestion of α2-M", "setting": "[4]; 1 mM inhibitor", "result": "partially blocked"}]}, {"molecule": "CC(C)C[C@@H](NC(=O)[C@@H]1CCCN1C(=O)CNC(=O)c1ccc(N)cc1)C(=O)N[C@H](C)C(=O)NO", "note": "[MMP inhibitor I] (H-[4Abz]GP[dL][dA]-{NHOH})", "values": [{"measurement": "blockage of hADAM-19 digestion of α2-M", "setting": "[4]; 1 mM inhibitor", "result": "did not block"}, {"measurement": "IC50", "setting": "[5]", "result": 1, "unit": "µM"}, {"measurement": "IC50", "setting": "[6]", "result": 1, "unit": "µM"}, {"measurement": "IC50", "setting": "[7]", "result": 30, "unit": "µM"}, {"measurement": "IC50", "setting": "[8]", "result": 150, "unit": "µM"}]}, {"molecule": "O=C(O)CN(CCOCCOCCN(CC(=O)O)CC(=O)O)CC(=O)O", "note": "[EGTA]", "values": [{"measurement": "blockage of hADAM-19 digestion of α2-M", "setting": "[4]; 20 mM inhibitor", "result": "completely blocked"}, {"measurement": "blockage of hADAM-19 proteolytic activity against α2-M", "setting": "[4]; [17]", "result": "blocked completely"}]}, {"molecule": "Nc1nc(=O)n([C@@H]2CS[C@H](CO)O2)cc1F", "note": "[COVIRACIL, emtricitabine]", "values": [{"measurement": "activity in vitro relative to lamivudine (3TC)", "setting": "[1]; greater activity than lamivudine (3TC)", "result": "3- to 10 fold"}]}, {"molecule": "CC(C)c1nc(COC(N)=O)n(Cc2ccncc2)c1Sc1cc(Cl)cc(Cl)c1", "note": "[CAPRAVIRINE]", "values": [{"measurement": "activity against K103N mutants", "setting": "[2]", "result": "activity against viruses containing the K103N mutation"}]}, {"molecule": "C[C@H](Sc1nc(N)cc(Cl)n1)c1cc2ccoc2cn1", "note": "[PNU-142721]", "values": [{"measurement": "activity relative to delavirdine", "setting": "[1]; greater activity than its predecessor delavirdine", "result": "20- to 50 fold"}, {"measurement": "activity against K103N mutants", "setting": "[2]", "result": "active against K103N mutants"}]}, {"molecule": "c1cnc2c(c1)ccc1cccnc12", "note": "[1,10-phenathroline]", "values": [{"measurement": "blockage of hADAM-19 proteolytic activity against α2-M", "setting": "[4]; [17]", "result": "blocked completely"}]}, {"molecule": "[Cl][Hg][Cl]", "note": "[HgCl2]", "values": [{"measurement": "blockage of hADAM-19 digestion of α2-M", "setting": "[4]; 10 mM inhibitor", "result": "completely blocked"}, {"measurement": "blockage of hADAM-19 proteolytic activity against α2-M", "setting": "[4]; [17]", "result": "blocked completely"}]}, {"molecule": "TIMP-1: tissue inhibitor of metalloproteinases", "values": [{"measurement": "blockage of hADAM-19 digestion of α2-M", "setting": "[4]; TIMP:hADAM-19 molar ratio of 100:1", "result": "Neither TIMP-1 or TIMP-2 at TIMP:hADAM-1 9 molar ratio of 100:1 were able to block"}, {"measurement": "blockage of hADAM-19 proteolytic activity against α2-M", "setting": "[4]; [17]", "result": "not blocked"}]}, {"molecule": "B1", "values": [{"measurement": "cleavage of α2-M (SDS-PAGE, silver staining)", "setting": "[9]", "result": "Human hADAM-19 cleaved α2-M to yield new bands of 105 kDa and a 72 kDa"}, {"measurement": "proteolysis of alpha-2 macroglobulin", "setting": "[9]", "result": "a polypeptide corresponding to this gene displayed metal-dependant proteolysis of alpha-2 macroglobulin"}, {"measurement": "fluorogenic peptide substrate cleavage", "setting": "[10]", "result": "Neither were the 5 different synthetic fluorogenic peptide substrates listed in the Materials and Methods"}, {"measurement": "fluorogenic peptide substrate cleavage", "setting": "[11]", "result": "Neither were the 5 different synthetic fluorogenic peptide substrates listed in the Materials and Methods"}, {"measurement": "fluorogenic peptide substrate cleavage", "setting": "[12]", "result": "Neither were the 5 different synthetic fluorogenic peptide substrates listed in the Materials and Methods"}, {"measurement": "fluorogenic peptide substrate cleavage", "setting": "[13]", "result": "Neither were the 5 different synthetic fluorogenic peptide substrates listed in the Materials and Methods"}, {"measurement": "fluorogenic peptide substrate cleavage", "setting": "[14]", "result": "Neither were the 5 different synthetic fluorogenic peptide substrates listed in the Materials and Methods"}, {"measurement": "substrate digestion", "setting": "[15]", "result": "rat tail tendon type I gelatin and bovine casein, were not dissolved by hADAM-19"}, {"measurement": "substrate digestion", "setting": "[16]", "result": "rat tail tendon type I gelatin and bovine casein, were not dissolved by hADAM-19"}]}]}
